Values after ≈ are worked out from the molar mass of the structure shown. Values joined by “and” are separate entries in the source; they are usually repeats but may differ in a detail not shown here. Identical values can stand only once. “Also recorded” adds a separate entry of the source. Like-named read-outs stand apart in the source and are kept apart here.
Legend:
experimental animals = details: cited from earlier work; for narcotic and hypnotic effects: experimental animals
male mice [1] = experiment: Direct observation of sedation / general activity level; assay type: in vivo, mouse; details: for minimal effective dose: Mus musculus, mice, IP; for observed sedative effects: male mice
Method: Sedative activity elicited by a test substance can be observed directly in experimental animals by a decrease in spontaneous locomotor activity, e.g., in open-field observation experiments. In such experiments, test animals are administered the test substance (usually by IP injection) and, after a suitable waiting period (usually 5-30 min), are placed into an open-field test chamber, which consists of a transparent plastic box with a clearly visible grid painted on the bottom (or floor). The numbers of excursions across the floor grids are then counted over a specified time period (usually 1-3 hours) and are subsequently compared with the numbers obtained from similarly treated saline controls. The number of grid crossings counted gives a direct measurement of the general activity level (measured as spontaneous locomotor activity) of each test animal in question. Sedative activity can be expressed as a percentage of the control level of spontaneous locomotor activity as measured by grid crossings per unit time.

hepatic porphyria = details: literature; cited from earlier work
HT-1080 = experiment: In vitro cytotoxicity (cell growth inhibition), HT-1080; assay type: cell-based, human and murine; details: Homo sapiens, read-out: EC50 (concentration that inhibited cell growth by 50%)
Method: (§1) The valepotriate compounds valtrate, didrovaltrate and acevaltrate were compared with isovaleramide with respect to their effects on various human and murine tumor cell lines. The cells at log-phase growth were treated with various concentrations of test substances for 48 hr. Growth rates were then determined by directly counting cell numbers or by protein determination. EC50 is the effective concentration of test substance that inhibited cell growth by 50%.

KB = experiment: In vitro cytotoxicity (cell growth inhibition), KB; assay type: cell-based, human and murine; details: Homo sapiens, read-out: EC50 (concentration that inhibited cell growth by 50%)
Method: as §1

male Sprague-Dawley rats [2] = experiment: Vogel Conflict (anxiolytic) Assay, punished licks; assay type: in vivo, rat; details: for anxiolytic activity in Vogel Conflict Assay: comparable dose levels (500-1000 mg/kg)
Text: In the Vogel Conflict Paradigm, thirsty rats are given mild electric shocks through a metal water dispenser when they try to drink. The shock is unpleasant, but not severe enough to cause overt pain. When administered anxiolytic drugs, the rats lick the dispenser more often than controls. Assessment of anxiolytic effects is thus measured as an increased number of licks.
Animals (male Sprague-Dawley rats, 250-300 g) are deprived of water for 24 hr and are then placed into a clear Plexiglass box (45 cm×25 cm×20 cm) which rests on a grid of stainless steel bars. A circuit between the grid bars and the drinking spout is established with a silver electrode in a drinking bottle placed in the chamber. The animals are allowed to lick the water dispenser for 5 min without shock; those animals that fail to lick are excluded from further study.
The animals are returned to the home colony and are again deprived of water for 24 hr and replaced in the chamber and allowed to lick for 1 min without shock. Then a 1 milliamp current (shock) is maintained for 4 min at the drinking spout. Only the animals showing 50% suppression in licking behavior compared to the first session are included in further testing.
The test substances are injected intraperitoneally (IP) after this session, and 30 min later the animals are again placed into the chamber. Again the animals are allowed to lick without shock for 1 min and the shock is instituted for the remaining 4 min. The number of punished licks during this time is used to assess anxiolytic activity.
The "anxiolytic index" is defined as the ratio of the number of punished licks of test animals to that of control animals during a 4-min period. An anxiolytic index greater than one indicates anxiolytic ("calmative") activity. In practice, it is considered that significant "calmative" activity is observed when the anxiolytic index is greater than 1.5.
Male Sprague-Dawley rats (250-300 g) were deprived of water for 24 hours before testing. The animals were allowed one five-minute period of drinking in the experimental chamber before receiving the test substances at the indicated doses. Thirty minutes later, the animals were returned to the chamber and allowed to drink for one minute without punishment. For the remaining four minutes, a shock was delivered to the drinking spout and the number of punished licks was recorded. Four or five animals were tested in each group.

male mice [3] = experiment: Acute toxicity (LD50) and therapeutic index; assay type: in vivo; details: male mice, 4000 mg/kg IP
Method: (§2) Convulsant activity was tested for N,N-diethylisovaleramide and isovaleramide itself. The potential for CNS-stimulating and convulsant properties was assessed by administering appropriate doses of the test substances IP to rodents (male mice and rats). […] At the highest dose of isovaleramide tested (4000 mg/kg IP), some deaths resulted among the test animals (male mice) after sleeping for several days, apparently from respiratory depression. […] Further testing of isovaleramide at still higher dose levels was precluded by its solubility limits and the consequently overly large injection volumes required.

[4] = Acute toxicity (LD50) and therapeutic index; assay type: in vivo; details: mouse, in vivo; mice, IP
Method: as §2

BCA-1 = experiment: In vitro cytotoxicity (cell growth inhibition), BCA-1; assay type: cell-based, human and murine; details: read-out: EC50 (concentration that inhibited cell growth by 50%)
Method: as §1

P388 = experiment: In vitro cytotoxicity (cell growth inhibition), P388; assay type: cell-based, human and murine; details: Mus musculus, read-out: EC50 (concentration that inhibited cell growth by 50%)
Method: as §1

[5] = in vivo; cited from earlier work
[6] = tested on: various human and murine tumor cell lines; experiment: Cytotoxicity summary over tumor cell lines; assay type: cell-based; details: summary of Table 1
Method: as §1

male mice [7] = experiment: Hypnotic activity (loss of the righting reflex) in mice; assay type: in vivo; details: Mus musculus, ip
COL-2 = experiment: In vitro cytotoxicity (cell growth inhibition), COL-2; assay type: cell-based, human and murine; details: Homo sapiens, read-out: EC50 (concentration that inhibited cell growth by 50%)
Method: as §1

LUC-1 = experiment: In vitro cytotoxicity (cell growth inhibition), LUC-1; assay type: cell-based, human and murine; details: read-out: EC50 (concentration that inhibited cell growth by 50%)
Method: as §1

MEL-2 = experiment: In vitro cytotoxicity (cell growth inhibition), MEL-2; assay type: cell-based, human and murine; details: read-out: EC50 (concentration that inhibited cell growth by 50%)
Method: as §1

[8] = cited from earlier work
male rats [9] = experiment: Spontaneous locomotor activity measured electronically (sedative effect); assay type: in vivo, rat; details: for relative potency as strong sedative-hypnotic agent, valnoctamide versus isovaleramide: FIG. 3
Text: General sedative effects can also be measured electronically by recording drug-induced decreases in spontaneous locomotor activity in treated experimental animals, as shown in FIG. 3.

KB-V1 = experiment: In vitro cytotoxicity (cell growth inhibition), KB-V1; assay type: cell-based, human and murine; details: Homo sapiens, read-out: EC50 (concentration that inhibited cell growth by 50%)
Method: as §1

male Sprague-Dawley rats [10] = details: injected at therapeutically effective doses; cited from earlier work
male rats [11] = experiment: Hypnotic activity (loss of the righting reflex) in rats; details: Rattus norvegicus, ip, read-out: hypnotic dose
Method: Hypnotic activity was assessed by simply determining the doses of the test substances (administered by IP injection) sufficient to cause a loss of the righting reflex (see above) and an apparent loss of consciousness and responsiveness.

male mice [12] = details: Roszkowski and Govier 1962; cited from earlier work
[13] = tested on: aggressive experimental animals and anxious humans; details: cited from earlier work
male mice [14] = details: mouse, in vivo, ip
Method: as §2

rats = details: rat, in vivo
Method: as §2

SMILES: CC(C)CC(=O)O [Isovaleric acid]
- narcotic and hypnotic effects (experimental animals): narcotic and hypnotic effects in experimental animals when administered in very high doses

SMILES: CC(C)CC(N)=O [Isovaleramide, isovaleramide]
- minimal effective dose (male mice [1]; naive observers, read-out: dose at which naive observers distinguish treated mice from saline controls): 250 mg/kg
- minimal effective dose (male mice [1]; very astute observers, read-out: dose at which very astute observers distinguish treated mice from controls): 100 mg/kg
- observed sedative effects (male mice [1]; 1000 mg/kg IP): clearly sedentary
- observed sedative effects (male mice [1]; 500 and 1000 mg/kg IP): much more pronounced
- hepatic porphyria-inducing properties (hepatic porphyria): no hepatic porphyria-inducing properties
- EC50 (HT-1080; HT-1080, 48 h): > 20 mg/L
- EC50 (KB; 48 h): > 20 mg/L
- increase in the number of punished licks over controls (male Sprague-Dawley rats [2]; IP, 500-1000 mg/kg): approximate three-fold increase
- survival (male mice [3]): more than half of the experimental animals survived
- mortality (male mice [3]; after sleeping for several days): some deaths
- LD50 [4]: > 4000 mg/kg
- selectivity ratio [4]: ~40
- EC50 (BCA-1; BCA1, 48 h): > 20 mg/L
- EC50 (P388; P388, 48 h): > 20 mg/L
- anticonvulsant properties [5]: no anticonvulsant properties
- cytotoxicity [6]: no cytotoxicity
- minimal effective dose (male mice [7]; mice, IP, not hypnotic even at 1000 mg/kg, hypnotic at 2000 mg/kg, read-out: hypnotic dose): > 1000 mg/kg
- minimal effective dose (male mice [7]; mice, IP, not hypnotic even at this dose, read-out: hypnotic dose): > 9900 µmol/kg
- minimal effective dose (male mice [7]; very large doses approaching toxic dose levels, read-out: dose producing hypnosis): > 1000 mg/kg
- clinical usefulness as a hypnotic (experimental animals; Impens 1912, Junkmann 1937): clinically useless as a hypnotic
- narcotic and hypnotic effects (experimental animals): narcotic and hypnotic effects in experimental animals when administered in very high doses; also recorded: hypnotic activity only when administered to experimental animals in very high doses
- EC50 (COL-2; Col2, 48 h): > 20 mg/L
- EC50 (LUC-1; LUC1, 48 h): > 20 mg/L
- EC50 (MEL-2; MEL2, 48 h): > 20 mg/L
- water solubility [8]: essentially water soluble
- decrease in spontaneous locomotor activity (male rats [9]; 250 mg/kg IP): decreased locomotor activity to a level comparable to that induced by valnoctamide at 25 mg/kg
- decrease in spontaneous locomotor activity (male rats [9]; 500 mg/kg IP): comparable to that induced by valnoctamide at 50 mg/kg IP
- relative potency as strong sedative-hypnotic agent, valnoctamide versus isovaleramide (male rats [9]): only about one-tenth of the potent sedative-hypnotic properties exhibited by valnoctamide
- EC50 (KB-V1; KB-V1, 48 h): > 20 mg/L

SMILES: CN1C(=O)CN=C(c2ccccc2)c2cc(Cl)ccc21 [diazepam]
- increase in the number of licks (male Sprague-Dawley rats [10]): ten-fold increase

SMILES: CC(=O)OCC1=CO[C@@H](OC(=O)CC(C)C)[C@H]2C1=C[C@H](OC(=O)CC(C)(C)OC(C)=O)[C@]21CO1 [Acevaltrate]
- EC50 (HT-1080; HT-1080, 48 hr): 2.05 mg/L (≈ 4.27 µM)
- EC50 (KB; 48 hr): 2.7 mg/L (≈ 5.62 µM)
- EC50 (BCA-1; BCA1, BCA-1, 48 hr): 1.94 mg/L (≈ 4.04 µM)
- EC50 (P388; P388, 48 hr): 0.88 mg/L (≈ 1.83 µM)
- EC50 (COL-2; Col2, COL-2, 48 hr): 2.89 mg/L (≈ 6.01 µM)
- EC50 (LUC-1; LUC1, LUC-1, 48 hr): 4.3 mg/L (≈ 8.95 µM)
- EC50 (MEL-2; MEL2, MEL-2, 48 hr): 0.75 mg/L (≈ 1.56 µM)
- EC50 (KB-V1; KB-V1, 48 hr): 2.26 mg/L (≈ 4.7 µM)

SMILES: OC[C@H]1O[C@@](CO)(O[C@H]2O[C@H](CO)[C@@H](O)[C@H](O)[C@H]2O)[C@@H](O)[C@@H]1O [sucrose]
- anxiolytic activity in Vogel Conflict Assay (male Sprague-Dawley rats [2]; IP): no significant anxiolytic activity

SMILES: CCC(C)C(CC)C(N)=O (racemic) [valnoctamide]
- minimal effective dose (male rats [11]): 250 mg/kg and 1750 µmol/kg
- therapeutic index (male mice [12]): ~11.4
- tranquilizing and anxiety-reducing properties [13]: purported to exhibit tranquilizing and anxiety-reducing properties
- water solubility [8]: very water insoluble
- relative potency as strong sedative-hypnotic agent, valnoctamide versus isovaleramide (male rats [9]): about ten times more potent than isovaleramide

SMILES: CCCC(N)=O [n-Butyramide]
- anxiolytic activity in Vogel Conflict Assay (male Sprague-Dawley rats [2]; IP): no significant anxiolytic activity

SMILES: CCN(CC)C(=O)CC(C)C [N,N-Diethylisovaleramide, N,N-diethylisovaleramide]
- dose with CNS-stimulating (excitant) activity (male Sprague-Dawley rats [2]; Vogel assay (FIG. 2)): 50 mg/kg
- dose causing death following convulsive seizures (male mice [14]): 500 mg/kg
- dose with potent CNS-stimulating and convulsant properties (male mice [14]): 250 mg/kg
- CNS-stimulating, anxiogenic and convulsant properties (rats): CNS-stimulating, anxiogenic, and convulsant properties
- dose at which potent convulsant (rats; ip): 250 mg/kg

SMILES: CC(=O)O[C@H]1C[C@@H]2C(COC(=O)CC(C)C)=CO[C@@H](OC(=O)CC(C)C)[C@@H]2[C@@]12CO2 [Didrovaltrate]
- EC50 (HT-1080; HT-1080, 48 hr): 0.7 mg/L (≈ 1.65 µM)
- EC50 (KB; 48 hr): 2.03 mg/L (≈ 4.78 µM)
- EC50 (BCA-1; BCA1, BCA-1, 48 hr): 0.7 mg/L (≈ 1.65 µM)
- EC50 (P388; P388, 48 hr): 0.19 mg/L (≈ 0.448 µM)
- EC50 (COL-2; Col2, COL-2, 48 hr): 1.49 mg/L (≈ 3.51 µM)
- EC50 (LUC-1; LUC1, LUC-1, 48 hr): 2.91 mg/L (≈ 6.86 µM)
- EC50 (MEL-2; MEL2, MEL-2, 48 hr): 0.42 mg/L (≈ 0.989 µM)
- EC50 (KB-V1; KB-V1, 48 hr): 1.29 mg/L (≈ 3.04 µM)

SMILES: CC(=O)OCC1=CO[C@@H](OC(=O)CC(C)C)[C@H]2C1=C[C@H](OC(=O)CC(C)C)[C@]21CO1 [Valtrate]
- EC50 (HT-1080; HT-1080, 48 h): 0.41 mg/L (≈ 0.97 µM)
- EC50 (KB; 48 h): 0.51 mg/L (≈ 1.21 µM)
- EC50 (BCA-1; BCA1, 48 h): 0.41 mg/L (≈ 0.97 µM)
- EC50 (P388; P388, 48 h): 0.06 mg/L (≈ 0.142 µM)
- EC50 (COL-2; Col2, 48 h): 0.59 mg/L (≈ 1.4 µM)
- EC50 (LUC-1; LUC1, 48 h): 2 mg/L (≈ 4.73 µM)
- EC50 (MEL-2; MEL2, 48 h): 0.39 mg/L (≈ 0.923 µM)
- EC50 (KB-V1; KB-V1, 48 h): 0.72 mg/L (≈ 1.7 µM)

Source: patent publication US5506268A, “Use of isovaleramide as a mild anxiolytic and sedative agent” (priority 1993, dated 1996)
